“Also recorded” adds a separate entry of the source.
Key:
[1] = test system: experienced and trained panelist; experiment: Sensorial description of energy drinks and additive solutions with propylene glycol or biologically-produced 1,3-propanediol (multi-sip-and-swallow taste method); settings: for Sensorial Description: RT; for increase of sweetness equivalent: with prior DW sipping; for concentration yielding the most consistent reduction in unpleasant taste/masking off-tastes: in vivo; for taste quality of 5-hour ENERGY shots and Bang energy drink: included in 5-hour ENERGY shots and Bang energy drink; for overall tasting quality vs propylene glycol: three additive solutions; for tasting qualities vs propylene glycol: two additive malic acid and sucralose solutions;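 on all read-outs here: propylene glycol or 1,3-propanediol added at 0.01, 0.1 or 1.0%, tasted by multi-sip-and-swallow in duplicate, compared with matching controls lacking either additive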
[2] = Taste of juices and yogurts with 1,3-propanediol; type: in vivo
[3] = Comparison of energy shot prototypes with and without caffeine and bioPDO (Example 7); type: in vivo, human; settings: samples without caffeine
Description: • 1. Take 1st sip from a full 30 mL medicine cup, taste and swallow the 1st sample, wait 10 seconds, then take a 2nd sip and lock it into memory. Wait for 10 seconds. • 2. Proceed with 2nd sample. Taste 1st sip of the 2nd sample, wait for 10 seconds, and then use the 2nd sip to compare to the 2nd sip of the 1st sample. • 3. Rinse with DW and wait for approximately 15 seconds. Repeat step 2 for each if extra sampling needed, not to exceed four samples at a time.
Each paired sample evaluation was repeated in duplicate with at least a 10-minute break and a carbon-treated water rinse.
The following samples were prepared for this study: • 1. Existing Sample #3A (Energy shot prototype) without bioPDO. • 2. Existing Sample #3B (Energy shot prototype) with bioPDO. • 3. New Sample #4A with similar levels of sucralose and malic acid as Sample #3A, BUT without bioPDO and caffeine as an experimental sample. • 4. New Sample #4B with similar levels of sucralose, malic acid and bioPDO as Sample #3B, BUT without caffeine as an experimental sample. Results
This study was designed so it would be possible to directly identify any other ‘off-taste’ attribute. […] Below are the comparative sensorial evaluation results in Table 42 including their specific sample formulations, observations and results. Keywords of SUL, MA and CAF are sucralose, malic acid and caffeine, respectively.

[4] = test system: experienced and trained panelist; experiment: Sensorial comparison of energy shot prototypes at various malic acid and sucralose levels with and without bioPDO (Example 5); type: in vivo, human; settings: 0.2% bioPDO; sucralose and malic acid lowered by 32% and 47%
Description: • 1. Take 1st sip from a full 30 mL medicine cup, taste and swallow the 1st sample, wait 10 seconds, then take a 2nd sip and lock it into memory. Wait for 10 seconds. • 2. Proceed with 2nd sample. Taste 1st sip of the 2nd sample, wait for 10 seconds, and then use the 2nd sip to compare to the 2nd sip (or 3rd sip) of the 1st sample.
Each paired sample evaluation was repeated in triplicate with at least a 10-minute break and a carbon-treated water rinse.
The theory is to try to establish a reduced amount (concentration) of malic acid to match its sourness intensity of our energy shot prototype w/bioPDO to the control, energy shot prototype without bioPDO. Secondly, if this adjustment of lowering the malic acid concentration results in increasing sweetness, an additional step will be performed to reduce the amount of sucralose until both sourness and sweetness taste match that of the control w/o bioPDO. Below are the comparative sensorial evaluation results in Tables 33-36 including their specific sample formulations, observations, and results. Keywords of SUL, MA and CAF are sucralose, malic acid, and caffeine, respectively.

[5] = PG samples tasted before PDO samples

OCCCO [PDO, 1,3-propanediol]
Sensorial Description ([1]; 0.01% PG or PDO in 79 ppm sucralose (5% SE) in distilled water): Same as 0.01% PG results. | Sensorial Description ([1]; 0.01% PG or PDO in 2,000 ppm sucralose in distilled water): (small sip): Similar results as 0.01% PG. Direct | Sensorial Description ([1]; 0.01% PG or PDO in 3,338 ppm caffeine in distilled water (caffeine shot)): (small sip): similar to Control #65. | Sensorial Description ([1]; 0.01% PG or PDO in 10,500 ppm malic acid and 2,000 ppm sucralose in distilled water): Little to no sweetness and sourness, similar | Sensorial Description ([1]; 0.01% PG or PDO in 10,500 ppm malic acid, 2,000 ppm sucralose, 3,338 ppm caffeine in distilled water): Significantly less sweet intensity, less and different | Sensorial Description ([1]; 0.01% PG or PDO in B vitamins at 5-hour Energy shot concentrations in distilled water): Slightly different from Control (upfront smooth-like) | Sensorial Description ([1]; 0.01% PG or PDO in Bang energy drink): Still slow onset sourness, less sweetness (more | Sensorial Description ([1]; 0.01% PG or PDO in Berry flavor in distilled water): No dry taste effect, slight less flavor. | Sensorial Description ([1]; 0.01% PG or PDO in Monster Energy Zero Ultra): Significantly less off-taste, still strong sweetness and | Sensorial Description ([1]; 0.01% PG or PDO in Monster Energy drink): Note: Loss of carbonation. No carbonic acid off- | Sensorial Description ([1]; 0.01% PG or PDO in NOS High Performance Energy Drink): Less Sweet, smoother, no off-taste, significant less | Sensorial Description ([1]; 0.01% PG or PDO in Orange 5-hour ENERGY shot (5HE Orange)): Not significantly less flavor, tasted better than | Sensorial Description ([1]; 0.01% PG or PDO in Red Bull Energy Drink): Better taste overall and less off taste than 0.01% PG, | Sensorial Description ([1]; 0.01% PG or PDO in Red Bull Sugar Free): Much better overall tasting quality, significantly less | Sensorial Description ([1]; 0.01% PG or PDO in Rockstar Original energy drink): Slight off-flavor, significantly less sourness, still | increase of sweetness equivalent ([1]; 0.01% in 2,000 ppm sucralose): ~45% more SE. | Sensorial Description ([1]; 0.1% PG or PDO in 238 ppm sucralose (10% SE) in distilled water): Still slightly more sweetness, thinner but still ~9- | Sensorial Description ([1]; 0.1% PG or PDO in 338 ppm caffeine in distilled water (caffeine drink)): Stronger bitterness intensity to medium level. | Sensorial Description ([1]; 0.1% PG or PDO in 2,000 ppm sucralose in distilled water): (small sip): Significantly improved sugar-like tasting | Sensorial Description ([1]; 0.1% PG or PDO in 3,338 ppm caffeine in distilled water (caffeine shot)): (small sip): similar to Control #65. | Sensorial Description ([1]; 0.1% PG or PDO in Bang energy drink): Significantly less sourness and sweetness, smoother, | Sensorial Description ([1]; 0.1% PG or PDO in Berry 5-hour ENERGY shot (5HE Berry)): Significantly better tasting quality than 0.1% PG, | Sensorial Description ([1]; 0.1% PG or PDO in Berry flavor in distilled water): Less dry than 0.01% PDO, slight less flavor. | Sensorial Description ([1]; 0.1% PG or PDO in Monster Energy Zero Ultra): More suitable tasting quality (less than 1% but more | Sensorial Description ([1]; 0.1% PG or PDO in Monster Energy drink): Note: Loss of carbonation. Similar to 0.01% PDO, | Sensorial Description ([1]; 0.1% PG or PDO in Red Bull Energy Drink): Note: Significant loss of carbonation. Still slight- | Sensorial Description ([1]; 0.1% PG or PDO in Red Bull Sugar Free): Flatter than 0.01% PDO, low-med flavor, low-med | increase of sweetness equivalent ([1]; 0.1% in 2,000 ppm sucralose): ~45% more SE. | taste effect at 1% (10,000 ppm) ([1]; 1% / 1.0% (10,000 ppm) in the compositions studied, listed as biologically-produced 1,3-propanediol): sometimes imparted a smoke and/or off-flavor; also recorded: yielded no further improvement in taste perception | Sensorial Description ([1]; 1.0% PG or PDO in 79 ppm sucralose (5% SE) in distilled water): Significant off-flavor note, chemical-like note, | Sensorial Description ([1]; 1.0% PG or PDO in 238 ppm sucralose (10% SE) in distilled water): Off-flavor, thinner-like or chemical-like note, | Sensorial Description ([1]; 1.0% PG or PDO in 338 ppm caffeine in distilled water (caffeine drink)): Off-flavor taste, delayed onset of bitterness. | Sensorial Description ([1]; 1.0% PG or PDO in 2,000 ppm sucralose in distilled water): (small sip): off-flavor chemical-like note (plastic- | Sensorial Description ([1]; 1.0% PG or PDO in 3,338 ppm caffeine in distilled water (caffeine shot)): (small sip): similar to Control #65, slightly | Sensorial Description ([1]; 1.0% PG or PDO in 10,500 ppm malic acid and 2,000 ppm sucralose in distilled water): Weak off-flavor across the taste, similar qualities | Sensorial Description ([1]; 1.0% PG or PDO in 10,500 ppm malic acid in distilled water): No off-flavor for sure, however possible Invisible- | Sensorial Description ([1]; 1.0% PG or PDO in 10,500 ppm malic acid in distilled water, listed as biologically-produced 1,3-propanediol): did not present any expected off-flavor | Sensorial Description ([1]; 1.0% PG or PDO in 10,500 ppm malic acid, 2,000 ppm sucralose, 3,338 ppm caffeine in distilled water): Very weak off-flavor note, thinner sourness, less | Sensorial Description ([1]; 1.0% PG or PDO in B vitamins at 5-hour Energy shot concentrations in distilled water): Slight-medium off-flavor note, | Sensorial Description ([1]; 1.0% PG or PDO in Bang energy drink): Slight and low off-flavor at middle tasting time, | Sensorial Description ([1]; 1.0% PG or PDO in Berry flavor in distilled water): Moderate chemical-like off-flavor at later | Sensorial Description ([1]; 1.0% PG or PDO in Monster Energy Zero Ultra): Smoother, medium off flavor at middle tasting | Sensorial Description ([1]; 1.0% PG or PDO in Monster Energy drink): Note: Little carbonation. Significant undescribed | Sensorial Description ([1]; 1.0% PG or PDO in NOS High Performance Energy Drink): Off-flavor in middle taste, no or low sourness, not | Sensorial Description ([1]; 1.0% PG or PDO in Orange 5-hour ENERGY shot (5HE Orange)): Slight or faint off-flavor in background (non- | Sensorial Description ([1]; 1.0% PG or PDO in Red Bull Energy Drink): Note: significantly less or no carbonation. Significant | reduction in unpleasant taste or masking of off-taste ([1]; 2,000 ppm, 238 ppm, or 70 ppm sucralose in distilled water): No reduction in unpleasant taste, or masking of off-taste | reduction of unpleasant taste / masking of bitterness ([1]; 3,382 ppm or 338 ppm caffeine in distilled water): did not reduce the unpleasant taste, or mask the bitterness | maximum useful concentration ([1]; across a broad range of food, beverage, and confection compositions): 0.5% | taste modulation of B vitamins ([1]; aqueous B vitamins at concentrations comparable to 5-hour ENERGY shots): did not positively modulate | modulation of berry flavor ([1]; berry flavor in distilled water): Neither biologically-produced 1,3-propanediol, nor propylene glycol modulated the flavor | concentration yielding the most consistent reduction in unpleasant taste/masking off-tastes ([1]; listed as bioPDO): ca. 0.1% | concentration yielding the most consistent reduction in unpleasant taste/masking off-tastes ([1]; listed as biologically-produced 1,3-propane diol): about 0.1% | taste quality of 5-hour ENERGY shots and Bang energy drink ([1]; listed as Biologically-produced 1,3-propanediol): improved the taste quality | taste quality of 5-hour ENERGY shots and Bang energy drink ([1]; listed as biologically-produced 1,3-propanediol): positive taste modulation effect of PDO | taste modulation or sour masking ([1]; malic acid at 10,500 ppm in distilled water): no positive taste modulation or sour masking effect | taste modulation of three additive solution ([1]; malic acid, sucralose and caffeine at 5-hour ENERGY concentrations in distilled water, compared to solution with propylene glycol): positive taste modulation, or a reduction of unpleasant tastes | taste modulation of single additive solutions ([1]; separate caffeine, malic acid, and sucralose solutions at mega-dose levels, listed as biologically-produced 1,3-propanediol): did not positively modulate the taste or mask the bitter, off, or sour tastes; also recorded: neither propylene glycol, nor biologically-produced 1,3-propanediol modulated the taste | taste modulation of two additive solutions ([1]; solutions containing a blend of two taste additives): most positive taste modulation effect | overall tasting quality vs propylene glycol ([1]; PDO samples tasted before PG samples, similar levels): better overall tasting quality | overall tasting quality vs propylene glycol [1, 5]: no tasting quality differences | tasting qualities vs propylene glycol [1, 5]: tasted marginally better than the propylene glycol-containing samples | tasting qualities vs propylene glycol ([1]; direct comparison of PDO to PG): better tasting qualities than those with propylene glycol | taste modulation ([2]; Greek yogurt, with vs without): less bitter and sweeter | taste modulation ([2]; Vanilla yogurt, with vs without): less bitter and somewhat sweeter | taste modulation ([2]; cranberry juice): reduced both the bitterness and the sweetness | taste modulation ([2]; grapefruit juice): decrease the bitterness and increase the sweetness | taste modulation ([2]; orange juice, with vs without): less bitter and somewhat sweeter | modulation of sweet and sour intensities [3]: does not positively or negatively modulate the sweet and sour intensities | taste quality effect of 0.2% addition [4]: failed to further improve
